Marks after values point to notes of the source that are not given here.
Legend:
Type in all cases: cell-based
m-PGES1 mRNA = m-PGES1 mRNA in human PBMC with and without TNF-α, quantitative RT-PCR
Method: (§1) Whole blood was collected from donors in EDTA-supplemented pouches at the Etablissement Français du Sang (Brest, France). The PBMC were isolated then from whole blood under sterile conditions within 36 hours after collection. Gradient density centrifugation was carried out on Ficoll (Eurobio). After washing in RPMI 1640 medium (Eurobio), cells were suspended in RPMI 1640 medium supplemented with 10% heat-inactivated fetal calf serum (Eurobio), 2 mM glutamine (D. Dutscher), 100 U of penicillin/ml (D. Dutscher), and 100 μg of streptomycin/ml (D. Dutscher). Monocytes were selected by plastic adherence for 1 h and approximately 10^7 cells were plated in 6-well tissue culture plates (3 mL medium per well). All incubations were performed in a humidified incubator at 37° C. and 5% CO2. Cells were recovered and dispersed in 2 ml fresh incubation medium supplemented with either 7β-hydroxyEPIA, 7β-hydroxy-DHEA, or 7α-hydroxy-DHEA (in 20 μL ethanol) in the presence or absence of 0.01 μg/mL TNF-α (Sigma-Aldrich). Control incubations contained 20 μl ethanol but no steroid. Supernatants were collected after 4 h and 24 hours incubations for measurement of their PG contents and cells were used for subsequent RNA isolation. A single step extraction method using the Trizol Reagent (Invitrogen, Cergy-Pontoise, France) provided total RNA.
(§2) cDNAs were synthesized from TURBO DNase I—treated RNA (Ambion, Huntingdon, UK) using the Superscript first strand synthesis system kit (Invitrogen). RT-PCR amplification mixtures (50 μL) contained 2.5× RealMaster Mix/20×SYBR solution (11.25 μL) (Eppendorf, Le Pecq, France) and 200 nM forward and reverse primers. Reactions were run on a RealPlex ep gradient S mastercycler (Eppendorf). The cycling conditions were 10 minutes at 95° C. and 45 cycles at 95° C., 55° C. and 68° C. for 15 seconds, 30 seconds and 30 seconds, respectively. Each assay included a standard curve of four serial dilution points of control cDNA. The HPRT1 housekeeping gene was used for quantification. All oligonucleotide primers (Table 2) were synthesized by Genecust/Distribio (Evry, France). The specificity of the amplified product was monitored by examining the melting curve of the product and confirmed by analysis on agarose gel electrophoresis.
(§3) All assays were carried out in triplicate and results were plotted as mean±S.E.M. One-way analysis of variance was performed followed by Duncan's multiple range tests in order to compare the differences between groups. Differences were considered statistically significant when p<0.05.

human PBMC = test: PG levels (PGE2, PGD2, 15d-PGJ2) in culture medium of human PBMC cultured with and without TNF-α, EIA (Example 3)
Method: as §1
Commercially available EIA kits were used for the determination of PGE2 levels (Oxford Biomedical Research, UK) and 15d-PGJ2 levels (Assay designs, Euromedex, France) in culture media. Measurement of PGD2 levels was obtained using the prostaglandin D2-MOX EIA kit (Cayman Chemical, Euromedex). In this case, and prior to assay, the fresh samples were immediately treated with the MOX-HCl reagent, which converted PGD2 into PGD2-MOX, thus preventing any further chemical degradation.
as §3

COX-2 mRNA = COX-2 mRNA in human PBMC with and without TNF-α, quantitative RT-PCR
Method: as §1, §2, §3

[1] = test system: rat spinal cord motor neurones; test: Neurite growth of spinal cord motor neurones in primary culture (anti β-Tubulin, In Cell Analyzer)
Method: Rat spinal motor neurones were prepared according to the method described by Martinou et al., 1992 (Martinou J C, Martinou I, Kato AC Cholinergic differentiation factor (CDF/LIF) promotes survival of isolated rat embryonic motoneurons in vitro. Neuron. 1992 April; 8(4):737-44). Briefly, pregnant female Wistar rats of 15 days gestation, were killed by cervical dislocation and the foetuses were removed from the uterus. Their spinal cords were removed and placed in ice-cold medium of Leibovitz (L15, Invitrogen, 11415-049) containing 1% of bovine serum albuminutes (BSA fatty acid free, Eurobio, Les Ulis, France, GXXBSA01-65). Meninges were carefully removed.
The spinal motor neurones were dissociated by trypsinisation for 20 minutes at 37° C. (trypsin EDTA 10× Invitrogen 15400054) diluted in PBS without calcium and magnesium (Invitrogen 2007-03). The reaction was stopped by the addition of Dulbecco Modified Eagle's Media (DMEM, Invitrogen 21969-035) containing DNase I grade II (0.1 mg/ml Roche diagnostic 104159) and 10% foetal calf serum (FCS, Invitrogen 10270098). The suspension was then mechanically dissociated by 3 passages through a 10 ml pipette. Cells were then centrifuged at 580 g for 10 minutes at room temperature. The pellet of dissociated cells was re-suspended in L15 medium and the resulting suspension was enriched in motor neurones by centrifugation at 180×g for 10 minutes at room temperature on a layer of BSA solution (3.5%) in L15 medium. The supernatant was discarded and the pellet was re-suspended in L15 medium supplemented with DNase I (1%). Then the suspension was layered over a cushion of Optiprep (d: 1.06 g/ml; Abcys, Paris, France; 1030061) and centrifuged at 335×g for 15 minutes at room temperature. The upper phase, containing the purified motor neurones, was collected, re-suspended with L15 medium and centrifuged at 800×g for 10 minutes at room temperature. The cell pellet was finally resuspended in a defined culture medium consisting of neurobasal medium supplemented with 2% B27, 2 mM L-Glutamine and Penicillin 50 Ul/ml-Streptomycin 50 μg/ml. Viable cells were counted in a Neubauer cytometer using the trypan blue exclusion test (Sigma T8154) then plated at 30 000 cells/well in 96 well-plates (pre-coated with poly-1-lysine; Nunclon, Invitrogen P5899) and cultured at 37° C. in a humidified air (95%) CO2 (5%) atmosphere.
The culture medium was changed into a defined culture medium after a 12 hours incubation period following the conditions described below:
BDNF 50 ng/ml and 10 ng/ml (in 0.1% DMSO)
After 6 hours, 12 hours and 24 hours of incubation with, cells were fixed for 5 minutes in an ethanol/acetic acid solution (95%/5%) at −20° C. and rinsed 3 times in PBS.
Motor neurones and sensory neurones were labelled by monoclonal anti β-Tubulin antibody (Sigma T8660) diluted at 1:400 in incubation solution (PBS with 5% of FCS and 0.1% of saponin, Sigma S-7900). This antibody specifically labels neurone cell bodies and neurites.
After 2 hours of incubation, the cells were washed in PBS and incubated with Alexa Fluor 488 goat anti mouse IgG (Molecular Probes A11001) diluted at 1:300 in incubation solution to reveal the 8-Tubulin III antibodies.
Analysis of the total length of neurones labelled with anti β-Tubulin antibodies (neurones) were carried out using In Cell Analyzer 1000 3.2.Workstation software.
The results were expressed in percentage compared to the vehicle. Comparison of groups was carried out using the unpaired T test.

[2] = 100 nM + TNF-α (10 ng/mL), 24 h

CC12CCC3C(C1CCC2=O)[C@H](O)C=C1C[C@@H](O)CCC13C (stereo partly drawn) [7α-hydroxy-DHEA, 7α-hydroxy-dehydroEPIAndrosterone]
mPGES1 (mRNA), mRNA production relative to controls (m-PGES1 mRNA; 1 nM + TNF-α (10 ng/mL), 24 h): 21.5 ± 6.66^a
mPGES1 (mRNA), mRNA production relative to controls (m-PGES1 mRNA; 1 nM, 4 h, without TNF-α): 0.76 ± 0.053
mPGES1 (mRNA), mRNA production relative to controls (m-PGES1 mRNA; 1 nM, 24 h, without TNF-α): 1.77 ± 0.324^a
mPGES1 (mRNA), mRNA production relative to controls (m-PGES1 mRNA; 10 nM + TNF-α (10 ng/mL), 24 h): 24.9 ± 10.30^a
mPGES1 (mRNA), mRNA production relative to controls (m-PGES1 mRNA; 10 nM, 4 h, without TNF-α): 0.94 ± 0.067
mPGES1 (mRNA), mRNA production relative to controls (m-PGES1 mRNA; 10 nM, 24 h, without TNF-α): 3.61 ± 0.662^a
mPGES1 (mRNA), mRNA production relative to controls (m-PGES1 mRNA; [2]): 25.4 ± 6.96^a
mPGES1 (mRNA), mRNA production relative to controls (m-PGES1 mRNA; 100 nM, 4 h, without TNF-α): 0.71 ± 0.058
mPGES1 (mRNA), mRNA production relative to controls (m-PGES1 mRNA; 100 nM, 24 h, without TNF-α): 2.63 ± 0.475^a
15d-PGJ2 (human PBMC; 1 nM + TNF-α (10 ng/mL), 4 h): 0.37 ± 0.020 ng/mL
PGD2 (human PBMC; 1 nM + TNF-α (10 ng/mL), 4 h): 0.20 ± 0.003 ng/mL
PGE2 (human PBMC; 1 nM + TNF-α (10 ng/mL), 4 h): 0.43 ± 0.003 ng/mL
15d-PGJ2 (human PBMC; 1 nM + TNF-α (10 ng/mL), 24 h): 0.63 ± 0.007^d ng/mL
PGE2 (human PBMC; 1 nM + TNF-α (10 ng/mL), 24 h): 1.53 ± 0.048^c ng/mL
15d-PGJ2 (human PBMC; 1 nM, 4 h, without TNF-α): 0.46 ± 0.004 ng/mL
PGD2 (human PBMC; 1 nM, 4 h, without TNF-α): 0.17 ± 0.004 ng/mL
PGE2 (human PBMC; 1 nM, 4 h, without TNF-α): 0.22 ± 0.006 ng/mL
15d-PGJ2 (human PBMC; 1 nM, 24 h, without TNF-α): 0.51 ± 0.013^a ng/mL
PGD2 (human PBMC; 1 nM, 24 h, without TNF-α): 0.13 ± 0.001 ng/mL
PGE2 (human PBMC; 1 nM, 24 h, without TNF-α): 0.23 ± 0.003 ng/mL
15d-PGJ2 (human PBMC; 10 nM + TNF-α (10 ng/mL), 4 h): 0.40 ± 0.004 ng/mL
PGD2 (human PBMC; 10 nM + TNF-α (10 ng/mL), 4 h): 0.17 ± 0.006 ng/mL
PGE2 (human PBMC; 10 nM + TNF-α (10 ng/mL), 4 h): 0.45 ± 0.012 ng/mL
15d-PGJ2 (human PBMC; 10 nM + TNF-α (10 ng/mL), 24 h): 0.71 ± 0.012^d ng/mL
PGE2 (human PBMC; 10 nM + TNF-α (10 ng/mL), 24 h): 1.75 ± 0.052^c ng/mL
15d-PGJ2 (human PBMC; 10 nM, 4 h, without TNF-α): 0.42 ± 0.010 ng/mL
PGD2 (human PBMC; 10 nM, 4 h, without TNF-α): 0.18 ± 0.002 ng/mL
PGE2 (human PBMC; 10 nM, 4 h, without TNF-α): 0.22 ± 0.006 ng/mL
15d-PGJ2 (human PBMC; 10 nM, 24 h, without TNF-α): 0.59 ± 0.003^a ng/mL
PGD2 (human PBMC; 10 nM, 24 h, without TNF-α): 0.17 ± 0.003 ng/mL
PGE2 (human PBMC; 10 nM, 24 h, without TNF-α): 0.30 ± 0.006 ng/mL
15d-PGJ2 (human PBMC; 100 nM + TNF-α (10 ng/mL), 4 h): 0.41 ± 0.021 ng/mL
PGD2 (human PBMC; 100 nM + TNF-α (10 ng/mL), 4 h): 0.18 ± 0.001 ng/mL
PGE2 (human PBMC; 100 nM + TNF-α (10 ng/mL), 4 h): 0.39 ± 0.009 ng/mL
15d-PGJ2 (human PBMC; [2]): 0.51 ± 0.012^d ng/mL
PGE2 (human PBMC; [2]): 1.40 ± 0.037^c ng/mL
15d-PGJ2 (human PBMC; 100 nM, 4 h, without TNF-α): 0.41 ± 0.004 ng/mL
PGD2 (human PBMC; 100 nM, 4 h, without TNF-α): 0.17 ± 0.003 ng/mL
PGE2 (human PBMC; 100 nM, 4 h, without TNF-α): 0.22 ± 0.005 ng/mL
15d-PGJ2 (human PBMC; 100 nM, 24 h, without TNF-α): 0.58 ± 0.024^a ng/mL
PGD2 (human PBMC; 100 nM, 24 h, without TNF-α): 0.13 ± 0.002 ng/mL
PGE2 (human PBMC; 100 nM, 24 h, without TNF-α): 0.25 ± 0.012 ng/mL
COX-2 (mRNA), mRNA production relative to controls (COX-2 mRNA; 1 nM + TNF-α (10 ng/mL), 4 h): 4.72 ± 1.229^a
COX-2 (mRNA), mRNA production relative to controls (COX-2 mRNA; 1 nM, 4 h, without TNF-α): 0.56 ± 0.072^b
COX-2 (mRNA), mRNA production relative to controls (COX-2 mRNA; 1 nM, 24 h, without TNF-α): 0.82 ± 0.27^b
COX-2 (mRNA), mRNA production relative to controls (COX-2 mRNA; 10 nM + TNF-α (10 ng/mL), 4 h): 3.70 ± 1.246^a
COX-2 (mRNA), mRNA production relative to controls (COX-2 mRNA; 10 nM, 4 h, without TNF-α): 0.94 ± 0.048
COX-2 (mRNA), mRNA production relative to controls (COX-2 mRNA; 10 nM, 24 h, without TNF-α): 1.66 ± 0.408^a
COX-2 (mRNA), mRNA production relative to controls (COX-2 mRNA; 100 nM, 4 h, without TNF-α): 1.10 ± 0.108
COX-2 (mRNA), mRNA production relative to controls (COX-2 mRNA; 100 nM, 24 h, without TNF-α): 1.05 ± 0.214

B1: BDNF: Brain derived nerve growth factor, a specific growth factor for motor neurones; reference compound (protein, UniProt P23560 19-247, looked up)
Neurotrophic factor BDNF …: APMKEANIRGQGGLAYPGVRTHGTLESVNGPKAGSRGLTSLADTFEHVIEELLDEDQKVRPNEENNKDADLYTSRVMLSSQVPLEPPLLFLLEEYKNYLDAANMSMRVRRHSDPARRGELSVCDSISEWVTAADKKTAVDMSGGTVTVLEKVPVSKGQLKQYFYETKCNPMGYTKEGCRGIDKRHWNSQCRTTQSYVRALTMDSKKRIGWRFIRIDTSCVCTLTIKRGR
Neurites length per field, % Vehicle ([1]; 10 ng/ml, 6 hours): 193%
Neurites length per field, Mean ([1]; 10 ng/ml, 6 hours): 489.5 μm
Neurites length per field, % Vehicle ([1]; 10 ng/ml, 12 hours): 173%
Neurites length per field, Mean ([1]; 10 ng/ml, 12 hours): 731.3 μm
Neurites length per field, % Vehicle ([1]; 10 ng/ml, 24 hours): 170%
Neurites length per field, Mean ([1]; 10 ng/ml, 24 hours): 366.1 μm
Neurites length per field, % Vehicle ([1]; 50 ng/ml, 6 hours): 180%
Neurites length per field, Mean ([1]; 50 ng/ml, 6 hours): 457.2 μm
Neurites length per field, % Vehicle ([1]; 50 ng/ml, 12 hours): 152%
Neurites length per field, Mean ([1]; 50 ng/ml, 12 hours): 643.7 μm
Neurites length per field, Mean ([1]; 50 ng/ml, 24 hours): 293.6 μm
